Measured values published in patent publication US20250171430A1, “PYRAZOLYL COMPOUNDS AS KV7 CHANNEL ACTIVATORS” (Biohaven Therapeutics Ltd., priority 2022, published 2025).

target: T1, Kv7.2/7.3 (Homo sapiens, UniProt O43525+O43526); test: Kv7.2/7.3 Activation Assay (Thallium Flux Assay); assay type: cell-based; settings: hKV7.2/7.3 cell line; test compound at single concentration of 10 μM; fluorescence at 90 sec normalized to positive control (retigabine, 30 μM)
T1 construct: Kv7.2 tetracycline-induced, Kv7.3 constitutive
Procedure, shortened: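 Single-point activity at 10 μM (0.1% DMSO, HEPES-buffered saline, pH 7.4) was scored from fluorescence at 90 s relative to 30 μM retigabine. Categories were none <0.15, moderate 0.15-0.7 and high >0.7. Thallium influx after stimulus addition was followed with FluxOR II Green dye in hKv7.2/7.3 cells, Kv7.2 expressed under overnight tetracycline (10 ng/mL) induction.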

SMILES | Kv7.2/7.3 Activity
Cn1nc(NC(=O)[C@@H]2CC2(F)F)c(C2(C)CCC2)c1-c1ccc(F)cc1 [Compound 140, (S)-2,2-difluoro-N-(5-(4-fluorophenyl)-1-methyl-4-(1-methylcyclobutyl)-1H-pyrazol-3-yl)cyclopropane-1-carboxamide] | + (“+” Moderate Activity 0.15-0.7)
CC(F)(F)C1(C(=O)Nc2nn(CC(F)(F)F)c(-c3ccc(F)cc3)c2C2CCC2)CC1 [Compound 141, N-(4-cyclobutyl-5-(4-fluorophenyl)-1-(2,2,2-trifluoroethyl)-1H-pyrazol-3-yl)-1-(1,1-difluoroethyl)cyclopropane-1-carboxamide] | − (“−” No Activity < 0.15)
C[C@H](C(=O)Nc1nn(CC(F)(F)F)c(-c2ccc(F)cc2)c1C1CCC1)C1(C(F)(F)F)CC1 [Compound 142, (S)-N-(4-cyclobutyl-5-(4-fluorophenyl)-1-(2,2,2-trifluoroethyl)-1H-pyrazol-3-yl)-2-(1-(trifluoromethyl)cyclopropyl)propanamide] | − (“−” No Activity < 0.15)
C[C@@H](C(=O)Nc1nn(CC(F)(F)F)c(-c2ccc(F)cc2)c1C1CCC1)C1(C(F)(F)F)CC1 [Compound 143, (R)-N-(4-cyclobutyl-5-(4-fluorophenyl)-1-(2,2,2-trifluoroethyl)-1H-pyrazol-3-yl)-2-(1-(trifluoromethyl)cyclopropyl)propanamide] | − (“−” No Activity < 0.15)
Cn1nc(NC(=O)[C@H]2C[C@]2(C)C(F)(F)F)c(C2CCC2)c1-c1ccc(F)cc1 [Compound 144, (1S,2S)-N-(4-cyclobutyl-5-(4-fluorophenyl)-1-methyl-1H-pyrazol-3-yl)-2-methyl-2-(trifluoromethyl)cyclopropane-1-carboxamide] | ++ (“++” High Activity ≥ 0.7)
Cn1nc(NC(=O)C2(C)CC2)c(C2CCC2)c1-c1ccc(F)cc1 [Compound 146, N-(4-cyclobutyl-5-(4-fluorophenyl)-1-methyl-1H-pyrazol-3-yl)-1-methylcyclopropane-1-carboxamide] | + (“+” Moderate Activity 0.15-0.7)
Cn1nc(NC(=O)[C@@H]2CC2(F)F)c(C2CCC2)c1C1CC(C)(C)C1 [Compound 147, (S)-N-(4-cyclobutyl-5-(3,3-dimethylcyclobutyl)-1-methyl-1H-pyrazol-3-yl)-2,2-difluorocyclopropane-1-carboxamide] | ++ (“++” High Activity ≥ 0.7)
Cn1nc(NC(=O)[C@H]2CC2(F)F)c(C2CCC2)c1C1CC(C)(C)C1 [Compound 148, (R)-N-(4-cyclobutyl-5-(3,3-dimethylcyclobutyl)-1-methyl-1H-pyrazol-3-yl)-2,2-difluorocyclopropane-1-carboxamide] | ++ (“++” High Activity ≥ 0.7)
Cc1nc(C)c(-c2c(C3CCC3)c(NC(=O)C3(C(F)(F)F)CC3)nn2C)s1 [Compound 149, N-(4-cyclobutyl-5-(2,4-dimethylthiazol-5-yl)-1-methyl-1H-pyrazol-3-yl)-1-(trifluoromethyl)cyclopropane-1-carboxamide] | − (“−” No Activity < 0.15)
Cn1nc(NC(=O)C2(C(F)(F)F)CC2)c(C2CCC2)c1-c1ccc(OC(F)(F)F)cc1 [Compound 150, N-(4-cyclobutyl-1-methyl-5-(4-(trifluoromethoxy)phenyl)-1H-pyrazol-3-yl)-1-(trifluoromethyl)cyclopropane-1-carboxamide] | + (“+” Moderate Activity 0.15-0.7)
Cn1nc(NC(=O)C2(C(F)(F)F)CC2)c(C2CCC2)c1C1CC(C)(C)C1 [Compound 151, N-(4-cyclobutyl-5-(3,3-dimethylcyclobutyl)-1-methyl-1H-pyrazol-3-yl)-1-(trifluoromethyl)cyclopropane-1-carboxamide] | ++ (“++” High Activity ≥ 0.7)
Cn1nc(NC(=O)C2(C)CC2)c(C2CCC2)c1-c1ccc(Cl)s1 [Compound 152, N-(5-(5-chlorothiophen-2-yl)-4-cyclobutyl-1-methyl-1H-pyrazol-3-yl)-1-methylcyclopropane-1-carboxamide] | ++ (“++” High Activity ≥ 0.7)
Cn1nc(NC(=O)C2(C(F)(F)F)CC2)c(C2CCC2)c1-c1ccc(Cl)s1 [Compound 153, N-(5-(5-chlorothiophen-2-yl)-4-cyclobutyl-1-methyl-1H-pyrazol-3-yl)-1-(trifluoromethyl)cyclopropane-1-carboxamide] | ++ (“++” High Activity ≥ 0.7)
Cn1nc(NC(=O)[C@H]2CC2(F)F)c(C2CCC2)c1-c1ccc(Cl)s1 [Compound 154, (R)-N-(5-(5-chlorothiophen-2-yl)-4-cyclobutyl-1-methyl-1H-pyrazol-3-yl)-2,2-difluorocyclopropane-1-carboxamide] | + (“+” Moderate Activity 0.15-0.7)
Cn1nc(NC(=O)[C@@H]2CC2(F)F)c(C2CCC2)c1-c1ccc(Cl)s1 [Compound 155, (S)-N-(5-(5-chlorothiophen-2-yl)-4-cyclobutyl-1-methyl-1H-pyrazol-3-yl)-2,2-difluorocyclopropane-1-carboxamide] | ++ (“++” High Activity ≥ 0.7)
Cn1nc(NC(=O)[C@@H]2CC2(F)F)c(C2CCC2)c1C1CC(F)(F)C1 [Compound 156, (S)-N-(4-cyclobutyl-5-(3,3-difluorocyclobutyl)-1-methyl-1H-pyrazol-3-yl)-2,2-difluorocyclopropane-1-carboxamide] | ++ (“++” High Activity ≥ 0.7)
Cn1nc(NC(=O)[C@H]2CC2(F)F)c(C2CCC2)c1C1CC(F)(F)C1 [Compound 157, (R)-N-(4-cyclobutyl-5-(3,3-difluorocyclobutyl)-1-methyl-1H-pyrazol-3-yl)-2,2-difluorocyclopropane-1-carboxamide] | ++ (“++” High Activity ≥ 0.7)
Cn1nc(NC(=O)C2(C(F)(F)F)CC2)c(C2CCC2)c1C1CC(F)(F)C1 [Compound 158, N-(4-cyclobutyl-5-(3,3-difluorocyclobutyl)-1-methyl-1H-pyrazol-3-yl)-1-(trifluoromethyl)cyclopropane-1-carboxamide] | ++ (“++” High Activity ≥ 0.7)
Cn1nc(NC(=O)[C@H]2CC2(F)F)c(C2CCC2)c1-c1ccc(F)cc1F [Compound 159, (R)-N-(4-cyclobutyl-5-(2,4-difluorophenyl)-1-methyl-1H-pyrazol-3-yl)-2,2-difluorocyclopropane-1-carboxamide] | + (“+” Moderate Activity 0.15-0.7)
Cn1nc(NC(=O)[C@@H]2CC2(F)F)c(C2CCC2)c1-c1ccc(F)cc1F [Compound 160, (S)-N-(4-cyclobutyl-5-(2,4-difluorophenyl)-1-methyl-1H-pyrazol-3-yl)-2,2-difluorocyclopropane-1-carboxamide] | − (“−” No Activity < 0.15)
Cn1nc(NC(=O)[C@H]2CC2(F)F)c(C2CCC2)c1-c1ccccc1F [Compound 161, (R)-N-(4-cyclobutyl-5-(2-fluorophenyl)-1-methyl-1H-pyrazol-3-yl)-2,2-difluorocyclopropane-1-carboxamide] | + (“+” Moderate Activity 0.15-0.7)
Cn1nc(NC(=O)[C@@H]2CC2(F)F)c(C2CCC2)c1-c1ccccc1F [Compound 162, (S)-N-(4-cyclobutyl-5-(2-fluorophenyl)-1-methyl-1H-pyrazol-3-yl)-2,2-difluorocyclopropane-1-carboxamide] | + (“+” Moderate Activity 0.15-0.7)
Cn1nc(NC(=O)[C@@H]2CC2(F)F)c(C2CC2)c1-c1ccc(F)cc1 [Compound 163, (S)-N-(4-cyclopropyl-5-(4-fluorophenyl)-1-methyl-1H-pyrazol-3-yl)-2,2-difluorocyclopropane-1-carboxamide] | + (“+” Moderate Activity 0.15-0.7)
Cn1nc(NC(=O)[C@H]2CC2(F)F)c(C2CC2)c1-c1ccc(F)cc1 [Compound 164, (R)-N-(4-cyclopropyl-5-(4-fluorophenyl)-1-methyl-1H-pyrazol-3-yl)-2,2-difluorocyclopropane-1-carboxamide] | ++ (“++” High Activity ≥ 0.7)
Cn1nc(NC(=O)C2(C(F)(F)F)CC2)c(C2CC2)c1-c1ccc(F)cc1 [Compound 165, N-(4-cyclopropyl-5-(4-fluorophenyl)-1-methyl-1H-pyrazol-3-yl)-1-(trifluoromethyl)cyclopropane-1-carboxamide] | ++ (“++” High Activity ≥ 0.7)
Cn1nc(NC(=O)C2(C(F)(F)F)CC2)c(C2CCC2)c1-c1cccc(F)c1 [Compound 166, N-(4-cyclobutyl-5-(3-fluorophenyl)-1-methyl-1H-pyrazol-3-yl)-1-(trifluoromethyl)cyclopropane-1-carboxamide] | ++ (“++” High Activity ≥ 0.7)
Cn1nc(NC(=O)[C@@H]2CC2(F)F)c(C2CCC2)c1-c1cccc(F)c1 [Compound 167, (S)-N-(4-cyclobutyl-5-(3-fluorophenyl)-1-methyl-1H-pyrazol-3-yl)-2,2-difluorocyclopropane-1-carboxamide] | + (“+” Moderate Activity 0.15-0.7)
Cn1nc(NC(=O)[C@H]2CC2(F)F)c(C2CCC2)c1-c1cccc(F)c1 [Compound 168, (R)-N-(4-cyclobutyl-5-(3-fluorophenyl)-1-methyl-1H-pyrazol-3-yl)-2,2-difluorocyclopropane-1-carboxamide] | ++ (“++” High Activity ≥ 0.7)
O=C(Nc1nn(CC(F)(F)F)c(-c2ccc(F)cc2)c1C1CCC1)C1(C(F)(F)F)CC1 [Compound 169, N-(4-cyclobutyl-5-(4-fluorophenyl)-1-(2,2,2-trifluoroethyl)-1H-pyrazol-3-yl)-1-(trifluoromethyl)cyclopropane-1-carboxamide] | + (“+” Moderate Activity 0.15-0.7)
Cn1nc(NC(=O)C2(C(F)(F)F)CC2)c(C2CCC2)c1-c1ccccc1F [Compound 170, N-(4-cyclobutyl-5-(2-fluorophenyl)-1-methyl-1H-pyrazol-3-yl)-1-(trifluoromethyl)cyclopropane-1-carboxamide] | + (“+” Moderate Activity 0.15-0.7)
